Marks after values point to notes of the source that are not given here.
How the values were obtained:
[1] = test system: PD-LID rat model (6-OHDA-lesioned rats); assay: Oral administration of tandospirone citrate on dyskinesia-like symptoms in PD-LID rat model; format: in vivo
Protocol: The behavior was observed and evaluated using the same method as Example 2. […] After 5 minutes, a levodopa containing solution was intraperitoneally administered, and the behavior was observed and evaluated. The results in the drawings are indicated in terms of mean value±standard error. The test results were statistically analyzed by comparison with the solvent administration group by Steel test using the total AIMs score in 3 hours and total AIMs score in 100 to 180 minutes as parameters. * indicates p<0.05, meaning that there is a significant difference. The dosage was described as a numerical value converted in terms of tandospirone free form.

[2] = test system: rat Vogel conflict test model; assay: Rat Vogel conflict test model (anxiolytic action); format: in vivo; conditions: non-clinical models, PD-LID effect in 6-OHDA-lesioned rats
Protocol: The anxiolytic action was evaluated using a rat Vogel conflict test model, and the effect on PD-LID was evaluated in 6-OHDA-lesioned rats.

[3] = test system: PD-LID rat model (6-OHDA-lesioned rats); assay: Dyskinesia improving effect upon continuous subcutaneous infusion of tandospirone in PD-LID rat model; format: in vivo
Protocol: The behavior was observed and evaluated before the drug evaluation date. The rats were assigned to each dosing group by using the 3 hour AIMs score, Locomotive behavior score, and rat body weight as indicators, which were used for evaluation of drugs. However, individuals with a total AIMs score of less than 10 were excluded from the test as lacking manifestation of a dyskinesia-like symptom. Individuals with a body weight deviating 10% or more from the mean body weight were also excluded from the test to minimize variation in the dosage for each individual. […] The prepared solution was used after injection into an ALZET® Osmotic Pump MODEL 2ML1 (9.68 μL/hour; DURECT). […] After 4 hours, a levodopa containing solution was administered to observe and evaluate the behavior. […] The results in the drawings are indicated in terms of mean value±standard error. The test results were statistically analyzed by comparison with the solvent administration group by Steel test using the total AIMs score in 3 hours and the total AIMs score in 100 to 180 minutes as parameters. * indicates p<0.05, meaning that there is a significant difference.

dopamine 2 receptors = dopamine 2 receptors (Homo sapiens, UniProt P14416); conditions: in vitro; cited from earlier work
Sequence of dopamine 2 receptors (P14416 whole entry): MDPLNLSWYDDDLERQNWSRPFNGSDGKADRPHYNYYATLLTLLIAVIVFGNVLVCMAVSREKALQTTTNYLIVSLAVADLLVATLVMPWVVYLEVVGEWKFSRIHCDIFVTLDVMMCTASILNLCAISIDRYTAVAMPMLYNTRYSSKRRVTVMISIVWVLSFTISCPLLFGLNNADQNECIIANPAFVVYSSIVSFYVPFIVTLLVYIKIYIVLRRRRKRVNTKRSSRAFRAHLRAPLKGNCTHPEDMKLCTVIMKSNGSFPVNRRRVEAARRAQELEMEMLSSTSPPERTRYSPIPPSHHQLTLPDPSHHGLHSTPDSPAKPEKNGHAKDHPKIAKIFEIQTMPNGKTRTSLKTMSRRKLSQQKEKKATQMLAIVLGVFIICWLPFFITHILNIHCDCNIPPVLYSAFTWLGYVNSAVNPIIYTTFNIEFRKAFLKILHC

[4] = Plasma tandospirone concentration measured after observation and evaluation of behavior in PD-LID rats; format: in vivo, rat; conditions: rat, plasma
Protocol: 50 μL of rat plasma sample was fractionated into a polypropylene microtube. 50 μL of methanol (50 μL of standard solution for calibration curve sample) and 200 μL of internal standard solution (Bezafibrate methanol solution: 200 nmol/L, 200 μL of methanol for blank sample) are added and stirred for about 10 seconds with a mixer. This is centrifuged (4° C., 4500 rpm, 10 min), and then the supernatant is subjected to vacuum filtration using a filter (FastRemover MF 0.2 μm). 70 μL of aqueous 10 mmol/L ammonium acetate solution is added to 70 μL of the resulting filtrate and stirred for about 10 seconds with a mixer to prepare a measurement sample.
When evaluating a tape agent, the hair on the abdominal region of rats was shaved before the evaluation date. The tape agent of formulation 2 was applied to the abdominal regions of rats on the evaluation date at 60 cm^2/kg (37 mg/kg). After 4 hours from application, a levodopa containing solution was intraperitoneally administered to observe and evaluate the behavior. Individuals with 50% or more of the tape agent coming off during the test were excluded from analysis.
After 4 hours from application, a levodopa containing solution was intraperitoneally administered to observe and evaluate the behavior. Individuals with 50% or more of the tape agent coming off during the test were excluded from analysis.
After 4 hours, a levodopa containing solution was administered to observe and evaluate the behavior.
After 4 hours, a levodopa containing solution was administered to observe and evaluate the behavior (day 0 of implanting the pump). Repeat administration of once daily levodopa containing solution was continued thereafter. The behavior was also observed and evaluated on day 13 of implanting the pump.

[5] = oral 20 mg/kg as free form, FIGS. 7A-7C
[6] = oral 20 mg/kg as free form, FIGS. 8A-8L
[7] = continuous subcutaneous infusion 1.25 mg/kg/hour

Compound: O=C1[C@@H]2[C@H]3CC[C@H](C3)[C@@H]2C(=O)N1CCCCN1CCN(c2ncccn2)CC1 [tandospirone, (1R,2S,3R,4S)—N-[4-{4-(pyrimidine-2-yl)piperadine-1-yl}butyl]-2,3-bicyclo[2.2.1]heptanedicarboximide]
- (i) Indicator of degree of improvement in dyskinesia symptom, in words ([1]; oral 6.7 mg/kg as free form): No improvement
- (i) difference in total AIMs score in 3 hours (solvent minus tandospirone) ([1]; oral 6.7 mg/kg as free form): −3.1
- (ii) Indicator of rebound symptom of dyskinesia, in words ([1]; oral 6.7 mg/kg as free form): Exacerbating trend
- (ii) difference in total AIMs score in 100 to 180 minutes (solvent minus tandospirone) ([1]; oral 6.7 mg/kg as free form): −3.5
- (i) Indicator of degree of improvement in dyskinesia symptom, in words ([1]; oral 20 mg/kg as free form): No improvement
- (ii) Indicator of rebound symptom of dyskinesia, in words ([1]; oral 20 mg/kg as free form): Exacerbation
- (i) difference in total AIMs score in 3 hours (solvent minus tandospirone) [1, 5]: −6.5(FIGS. 7A-7C)
- (ii) difference in total AIMs score in 100 to 180 minutes (solvent minus tandospirone) [1, 5]: −9.1*(FIGS. 7A-7C)
- (i) difference in total AIMs score in 3 hours (solvent minus tandospirone) [1, 6]: −8.6(FIGS. 8A-8L)
- (ii) difference in total AIMs score in 100 to 180 minutes (solvent minus tandospirone) [1, 6]: −8.5*(FIGS. 8A-8L)
- (i) Indicator of degree of improvement in dyskinesia symptom, in words ([1]; oral 67 mg/kg as free form): No improvement
- (i) difference in total AIMs score in 3 hours (solvent minus tandospirone) ([1]; oral 67 mg/kg as free form): 2.9
- (ii) Indicator of rebound symptom of dyskinesia, in words ([1]; oral 67 mg/kg as free form): Exacerbation
- (ii) difference in total AIMs score in 100 to 180 minutes (solvent minus tandospirone) ([1]; oral 67 mg/kg as free form): −10.1*
- anxiolytic action compared with effect on PD-LID [2]: exerted at the same dosage
- dyskinesia-like symptoms (total AIMs score in 180 minutes) vs solvent [3, 7]: significant improvement
- total AIMs score in 100 to 180 minutes vs solvent [3, 7]: significant improvement
- dyskinesia-like symptoms (total AIMs score in 180 minutes) ([3]; continuous subcutaneous infusion 0.05, 0.25, 1.25 mg/kg/hour, levodopa after 4 hours): dose-dependently improved dyskinesia-like symptoms
- clear dyskinesia-like symptom (mean AIMs score of 2 or greater) at 120 to 140 minutes after levodopa administration ([3]; continuous subcutaneous infusion 0.05-1.25 mg/kg/hour): not found
- rebound symptom ([3]; continuous subcutaneous infusion, any of the dosages): did not lead to a rebound symptom
- affinity in receptor binding (dopamine 2 receptors): low affinity
- concentration at 7 h ([4]; continuous subcutaneous infusion 0.05 mg/kg/hour): 23.5 ng/mL
- concentration at 7 h ([4]; continuous subcutaneous infusion 0.25 mg/kg/hour): 119 ng/mL
- concentration at 7 h [4, 7]: 541 ng/mL

— patent publication US11559525B2, “Therapeutic drug for dyskinesia” (Sumitomo Pharma Co., Ltd., priority 2019, dated 2023)
